Assay results taken from patent publication US20230146675A1, “PYRIMIDO[5,4-d]PYRIMIDINE DERIVATIVES AS ENT INHIBITORS FOR THE TREATMENT OF CANCERS, AND COMBINATION THEREOF WITH ADENOSINE RECEPTOR ANTAGONISTS” (ITEOS BELGIUM SA, priority 2020, published 2023).

molecular target: T1, human ENT1 (Homo sapiens, UniProt Q99808); assay: ENT1 binding assay (competition with Sahenta-DY647 on JAR cells); design: JAR cells expressing ENT1 were bought from ATCC; host or cells: JAR cells; conditions: binned IC50
T1 sequence (Q99808 1-456): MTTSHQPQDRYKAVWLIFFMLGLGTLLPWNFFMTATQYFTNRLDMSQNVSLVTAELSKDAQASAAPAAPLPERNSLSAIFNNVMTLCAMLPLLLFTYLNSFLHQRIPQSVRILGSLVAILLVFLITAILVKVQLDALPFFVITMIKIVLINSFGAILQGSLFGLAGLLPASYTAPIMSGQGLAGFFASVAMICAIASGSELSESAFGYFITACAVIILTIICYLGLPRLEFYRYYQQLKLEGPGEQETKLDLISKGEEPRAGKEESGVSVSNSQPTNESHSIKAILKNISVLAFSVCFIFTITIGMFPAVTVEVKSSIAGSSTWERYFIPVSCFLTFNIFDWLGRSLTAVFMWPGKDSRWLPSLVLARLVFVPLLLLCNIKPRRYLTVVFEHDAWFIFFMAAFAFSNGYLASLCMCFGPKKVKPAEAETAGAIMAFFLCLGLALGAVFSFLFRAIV
Procedure, shortened: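 JAR cells were incubated with test compounds and the fluorescent ligand Sahenta-DY647 in competition. Plates were washed twice by centrifugation (4 min, 400 rcf, 4 °C). Binding potency was derived from the final fluorescence.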

| IC50 [nM] | SMILES |
| --- | --- |
| 500 to 1000 | COCCN(CCOC)c1nc(N2CCC(OC)CC2)c2nc(N3CCc4[nH]cnc4C3)nc(N3CCN(C)C(=O)C3)c2n1 [Compound 290, 4-(6-(bis(2-methoxyethyl)amino)-8-(4-methoxypiperidin-1-yl)-2-(1,4,6,7-tetrahydro-5H-imidazo[4,5-c]pyridin-5-yl)pyrimido[5,4-d]pyrimidin-4-yl)-1-methylpiperazin-2-one] |
| 100 to 500 | COCCN(CCOC)c1nc(N2CCN(C)C(=O)C2)c2nc(N3CCC(S(C)(=O)=O)CC3)nc(N3CCC(OC)CC3)c2n1 [Compound 292, 4-(2-(bis(2-methoxyethyl)amino)-8-(4-methoxypiperidin-1-yl)-6-(4-(methyisulfonyl)piperidin-1-yl)pyrimido[5,4-d]pyrimidin-4-yl)-1-methylpiperazin-2-one] |
| 100 to 500 | COCCN(CCOC)c1nc(N2CCC(OC)CC2)c2nc(N3CCN(c4ncccc4N)CC3)nc(N3CCN(C)C(=O)C3)c2n1 [Compound 293, 4-(2-(4-(3-aminopyridin-2-yl)piperazin-1-yl)-6-(bis(2-methoxyethyl)amino)-8-(4-methoxypiperidin-1-yl)pyrimido[5,4-d]pyrimidin-4-yl)-1-methylpiperazin-2-one] |
| < 100 | COCCN(CCOC)c1nc(N2CCN(C)C(=O)C2)c2nc(N3CCN(c4ncccc4N)CC3)nc(N3CCC(OC)CC3)c2n1 [Compound 294, 4-(6-(4-(3-aminopyridin-2-yl)piperazin-1-yl)-2-(bis(2-methoxyethyl)amino)-8-(4-methoxypiperidin-1-yl)pyrimido[5,4-d]pyrimidin-4-yl)-1-methylpiperazin-2-one] |
| 100 to 500 | COCCN(CCOC)c1nc(N2CCC(OC)CC2)c2nc(N3CCn4ccnc4C3)nc(N3CCN(C)C(=O)C3)c2n1 [Compound 295, 4-(6-(bis(2-methoxyethyl)amino)-2-(5,6-dihydroimidazo[1,2-a]pyrazin-7(8H)-yl)-8-(4-methoxypiperidin-1-yl)pyrimido[5,4-d]pyrimidin-4-yl)-1-methylpiperazin-2-one] |
| 100 to 500 | COCCN(CCOC)c1nc(N2CCC(OC)CC2)c2nc(N3CCn4cncc4C3)nc(N3CCN(C)C(=O)C3)c2n1 [Compound 297, 4-(6-(bis(2-methoxyethyl)amino)-2-(5,6-dihydroimidazo[1,5-a]pyrazin-7(8H)-yl)-8-(4-methoxypiperidin-1-yl)pyrimido[5,4-d]pyrimidin-4-yl)-1-methylpiperazin-2-one] |
| 100 to 500 | CCN(CCN1CCCC1)c1nc(N2CCN(C)C(=O)C2)c2nc(N(CCOC)Cc3cc(OC)c(OC)c(OC)c3)nc(N3CCC(OC)CC3)c2n1 [Compound 300, 4-(2-(ethyl(2-(pyrrolidin-1-yl)ethyl)amino)-6-((2-methoxyethyl)(3,4,5-trimethoxybenzyl)amino)-8-(4-methoxypiperidin-1-yl)pyrimido[5,4-d]pyrimidin-4-yl)-1-methylpiperazin-2-one] |
| < 100 | COCCN(CCOC)c1nc(N2CCn3nc(C)nc3C2)c2nc(N(CCOC)CCOC)nc(N3CCN(C)C(=O)C3)c2n1 [Compound 301, 4-(2,6-bis(bis(2-methoxyethyl)amino)-8-(2-methyl-5,6-dihydro-[1,2,4]triazolo[1,5-a]pyrazin-7(8H)-yl)pyrimido[5,4-d]pyrimidin-4-yl)-1-methylpiperazin-2-one] |
| < 100 | COCCN(Cc1ccc(OC)c(OC)c1OC)c1nc(N2CCN(C)C(=O)C2)c2nc(N(CCOC)CCOC)nc(N3CCC(OC)CC3)c2n1 [Compound 302, 4-(6-(bis(2-methoxyethyl)amino)-2-((2-methoxyethyl)(2,3,4-trimethoxybenzyl)amino)-8-(4-methoxypiperidin-1-yl)pyrimido[5,4-d]pyrimidin-4-yl)-1-methylpiperazin-2-one] |
| < 100 | COCCN(CCOC)c1nc(N2CCC(OC)CC2)c2nc(N(CCO)CCO)nc(N3CC(=O)N(C)C(C)(C)C3)c2n1 [Compound 311, 4-(2-(bis(2-hydroxyethyl)amino)-6-(bis(2-methoxyethyl)amino)-8-(4-methoxypiperidin-1-yl)pyrimido[5,4-d]pyrimidin-4-yl)-1,6,6-trimethylpiperazin-2-one] |

Second part, the molecule before the results:

| SMILES | IC50 [nM] |
| --- | --- |
| COCCN(CCCS(C)(=O)=O)c1nc(N2CCN(C)C(=O)C2)c2nc(N(CCOC)CCOC)nc(N3CCC(OC)CC3)c2n1 [Compound 289, 4-(6-(bis(2-methoxyethyl)amino)-2-((2-methoxyethyl)(3-(methylsulfonyl)propyl)amino)-8-(4-methoxypiperidin-1-yl)pyrimido[5,4-d]pyrimidin-4-yl)-1-methylpiperazin-2-one] | < 100 |
| COCCN(CCOC)c1nc(N2CCN(C)C(=O)C2)c2nc(N3CCc4[nH]cnc4C3)nc(N3CCC(OC)CC3)c2n1 [Compound 291, 4-(2-(bis(2-methoxyethyl)amino)-8-(4-methoxypiperidin-1-yl)-6-(1,4,6,7-tetrahydro-5H-imidazo[4,5-c]pyridin-5-yl)pyrimido[5,4-d]pyrimidin-4-yl)-1-methylpiperazin-2-one] | 500 to 1000 |
| COCCN(CCOC)c1nc(N2CCN(C)C(=O)C2)c2nc(N3CCn4ccnc4C3)nc(N3CCC(OC)CC3)c2n1 [Compound 296, 4-(2-(bis(2-methoxyethyl)amino)-6-(5,6-dihydroimidazo[1,2-a]pyrazin-7(8H)-yl)-8-(4-methoxypiperidin-1-yl)pyrimido[5,4-d]pyrimidin-4-yl)-1-methylpiperazin-2-one] | 100 to 500 |
| COCCN(CCOC)c1nc(N2CCN(C)C(=O)C2)c2nc(N3CCn4cncc4C3)nc(N3CCC(OC)CC3)c2n1 [Compound 298, 4-(2-(bis(2-methoxyethyl)amino)-6-(5,6-dihydroimidazo[1,5-a]pyrazin-7(8H)-yl)-8-(4-methoxypiperidin-1-yl)pyrimido[5,4-d]pyrimidin-4-yl)-1-methylpiperazin-2-one] | 500 to 1000 |
| COCCN(CCOC)c1nc(N2CCN(C)C(=O)C2)c2nc(N3CCn4cnnc4C3)nc(N3CCC(OC)CC3)c2n1 [Compound 299, 4-(2-(bis(2-methoxyethyl)amino)-6-(5,6-dihydro-[1,2,4]triazolo[4,3-a]pyrazin-7(8H)-yl)-8-(4-methoxypiperidin-1-yl)pyrimido[5,4-d]pyrimidin-4-yl)-1-methylpiperazin-2-one] | 100 to 500 |
| COCCN(CCOC)c1nc(N2CCN(C)C(=O)C2)c2nc(N(CCOC)Cc3ccc(OC)c(OC)c3OC)nc(N3CCC(OC)CC3)c2n1 [Compound 303, 4-(2-(bis(2-methoxyethyl)amino)-6-((2-methoxyethyl)(2,3,4-trimethoxybenzyl)amino)-8-(4-methoxypiperidin-1-yl)pyrimido[5,4-d]pyrimidin-4-yl)-1-methylpiperazin-2-one] | < 100 |
| COCCN(Cc1ccc(OC)c(OC)c1OC)c1nc(N2CCC(OC)CC2)c2nc(N(CCO)CCO)nc(N3CCN(C)C(=O)C3)c2n1 [Compound 304, 4-(2-(bis(2-hydroxyethyl)amino)-6-((2-methoxyethyl)(2,3,4-trimethoxybenzyl)amino)-8-(4-methoxypiperidin-1-yl)pyrimido[5,4-d]pyrimidin-4-yl)-1-methylpiperazin-2-one] | < 100 |
| COCCN(Cc1ccc(OC)c(OC)c1OC)c1nc(N2CCN(C)C(=O)C2)c2nc(N(CCO)CCO)nc(N3CCC(OC)CC3)c2n1 [Compound 305, 4-(6-(bis(2-hydroxyethyl)amino)-2-((2-methoxyethyl)(2,3,4-trimethoxybenzyl)amino)-8-(4-methoxypiperidin-1-yl)pyrimido[5,4-d]pyrimidin-4-yl)-1-methylpiperazin-2-one] | < 100 |
| COCCN(CCO)c1nc(N2CCN(C)C(=O)C2)c2nc(N(CCO)CCOC)nc(N3CCC(OC)CC3)c2n1 [Compound 306, 4-(2,6-bis((2-hydroxyethyl)(2-methoxyethyl)amino)-8-(4-methoxypiperidin-1-yl)pyrimido[5,4-d]pyrimidin-4-yl)-1-methylpiperazin-2-one] | 100 to 500 |
| COCCN(CCOC)c1nc(N2CCC(OC)CC2)c2nc(N(CCO)CCO)nc(N3CC(=O)N(C)C(=O)C3)c2n1 [Compound 307, 4-(2-(bis(2-hydroxyethyl)amino)-6-(bis(2-methoxyethyl)amino)-8-(4-methoxypiperidin-1-yl)pyrimido[5,4-d]pyrimidin-4-yl)-1-methylpiperazine-2,6-dione] | < 100 |
| COCCN(CCOC)c1nc(N2CC(=O)N(C)C(=O)C2)c2nc(N(CCO)CCO)nc(N3CCC(OC)CC3)c2n1 [Compound 308, 4-(6-(bis(2-hydroxyethyl)amino)-2-(bis(2-methoxyethyl)amino)-8-(4-methoxypiperidin-1-yl)pyrimido[5,4-d]pyrimidin-4-yl)-1-methylpiperazine-2,6-dione] | < 100 |
| COCCN(CCOC)c1nc(N2CCC(OC)CC2)c2nc(N(CCO)CCO)nc(N3CC(=O)N(C)C(C)C3)c2n1 (centres unmarked) [Compound 309, 4-(2-(bis(2-hydroxyethyl)amino)-6-(bis(2-methoxyethyl)amino)-8-(4-methoxypiperidin-1-yl)pyrimido[5,4-d]pyrimidin-4-yl)-1,6-dimethylpiperazin-2-one] | 100 to 500 |
| COCCN(CCOC)c1nc(N2CC(=O)N(C)C(C)C2)c2nc(N(CCO)CCO)nc(N3CCC(OC)CC3)c2n1 (centres unmarked) [Compound 310, 4-(6-(bis(2-hydroxyethyl)amino)-2-(bis(2-methoxyethyl)amino)-8-(4-methoxypiperidin-1-yl)pyrimido[5,4-d]pyrimidin-4-yl)-1,6-dimethylpiperazin-2-one] | 500 to 1000 |
